Measurements as given in patent US20150150878A1, “Methods For Inhibiting Viruses By Targeting Cathepsin-L Cleavage Sites In The Viruses' Glycoproteins” (priority 2012, published 2015).

Assays:
cathepsin L [1] = target: T1, cathepsin L (Homo sapiens, UniProt P07711); assay type: biochemical; set-up: human cathepsin L purified from human liver (Sigma Aldrich); purchased Sigma Aldrich; host or cells: human liver (tissue-purified)
cathepsin L [2] = target: T1, cathepsin L; assay type: biochemical; set-up: human cathepsin L purified from human liver (Sigma Aldrich); purchased Sigma Aldrich; host or cells: human liver (tissue-purified); remark: listed apart in the source
cathepsin L [3] = target: T1, cathepsin L; assay type: biochemical; set-up: human cathepsin L purified from human liver (Sigma Aldrich); purchased Sigma Aldrich; host or cells: human liver (tissue-purified); remark: listed apart in the source
cathepsin L [4] = target: T1, cathepsin L; assay type: biochemical; set-up: human cathepsin L purified from human liver (Sigma Aldrich); purchased Sigma Aldrich; host or cells: human liver (tissue-purified); remark: listed apart in the source
cathepsin L [5] = target: T1, cathepsin L; assay type: biochemical; set-up: human cathepsin L purified from human liver (Sigma Aldrich); purchased Sigma Aldrich; host or cells: human liver (tissue-purified); remark: listed apart in the source
[6] = tested on: SARS-CoV-S pseudotyped virus; assay: microbe, parasite or virus in culture; assay type: cell-based; conditions: Severe acute respiratory syndrome coronavirus, 72 h, read-out: inhibition of SARS-CoV pseudotyped virus entry
[7] = tested on: EBOV-GP pseudotyped virus; assay: microbe, parasite or virus in culture; assay type: cell-based, Ebola virus; conditions: Zaire ebolavirus, 72 h, read-out: inhibition of EBOV pseudotyped virus entry

T1 sequence (P07711 114-333): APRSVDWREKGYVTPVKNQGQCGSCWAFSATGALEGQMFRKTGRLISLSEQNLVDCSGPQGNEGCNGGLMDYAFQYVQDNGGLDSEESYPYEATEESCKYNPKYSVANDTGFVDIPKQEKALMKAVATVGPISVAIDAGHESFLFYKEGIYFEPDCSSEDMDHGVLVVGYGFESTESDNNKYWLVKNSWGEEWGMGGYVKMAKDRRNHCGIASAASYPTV

Row | SMILES | Inhibition of cleavage of Ebola peptide by Cathepsin-L (cathepsin L [1]) | Inhibition of cleavage of Hendra peptide by Cathepsin-L (cathepsin L [2]) | Inhibition of cleavage of SARS peptide by Cathepsin-L (cathepsin L [3]) | Inhibition of cleavage of Nipah peptide by Cathepsin-L (cathepsin L [4]) | Inhibition of cleavage of NPY peptide by Cathepsin-L (cathepsin L [5]) | percentage inhibition against Ebola peptide (cathepsin L [1]) | percentage inhibition against Hendra peptide (cathepsin L [2]) | percentage inhibition against SARS peptide (cathepsin L [3]) | percentage inhibition against Nipah peptide (cathepsin L [4]) | percentage inhibition against human Pro-NPY peptide (cathepsin L [5]) | inhibition at 10 µM [6] | inhibition at 10 µM [7] | cytotoxic effect on 293FT cells (293FT cells) | cytotoxicity (293FT cells; human)
1 | Cc1c(Sc2nc3ccccc3[nH]2)c(=O)[nH]c2cc3c(cc12)OCO3 [Compound 7665576] | −3.8% | 37.9% | 60.7% | 63.7% | 2.0% |  |  |  |  |  |  |  |  | 
2 | N#CSc1ccc(NC(=O)CSc2nc3ccccc3[nH]2)cc1 [Compound 6572698] | 15% | 21.6% | 66.1% | 40.7% | 1% | 34% | 24.8% | 44.8% | 41.1% | 14.7% |  |  |  | 
3 | Nc1ccc2[nH]c3ccccc3c2c1 [Compound 5172420] | 6.1% | 8.20% | 42.29% | 55.68% | 4.1% |  |  |  |  |  |  |  |  | 
4 | COc1ccc(OC)c(NC(=O)Nc2ccc(C(F)(F)F)cc2)c1 [Compound 7808526] | 9.6% | −4.08% | 69.2% | 40.8% | 1.2% |  |  |  |  |  |  |  |  | 
5 | N#Cc1ccc(NC(=O)Nc2ccc(Cl)cc2)cc1 [Compound 7910528, 1-(4-chlorophenyl)-3-(4-cyanophenyl)urea] | 33.4% | 12.1% | 56.5% | 57.8% | 6.5% | 35% | 12.1% | 56.5% | 57.8% | 6.5% | 30.3% | 23.3% |  | 
6 | Cc1ccc(-c2nc3ccccc3[nH]2)cc1NC(=O)c1ccc2c(c1)OCO2 [Compound 7793889] | −3.4% | −7.77% | 76.5% | 51.1% | 6.1% |  |  |  |  |  |  |  |  | 
7 | Cc1cnn(CCCNC(=O)c2cc(-c3cccnc3)nc3ccc(Cl)cc23)c1 [Compound 7923236] | 14% | 32.6% | 60.2% | 55.1% | 5.2% | 34.8% | 59% | 66.2% | 80.3% | 10.1% |  |  |  | 
8 | O=C(Nc1cccnc1)c1cc2cc(Br)ccc2oc1=O [Compound 7947992] | 20% | 31.1% | 37.7% | 61.4% | 18.6% |  |  |  |  |  |  |  |  | 
9 | CNS(=O)(=O)c1ccc(NC(=O)Nc2ccc(F)c(Cl)c2)cc1 [Compound 7790059] | 1.8% | 12.4% | 49.3% | 44.1% | 6.4% |  |  |  |  |  |  |  |  | 
10 | Cc1cc(C(=O)Nc2cccnc2)sc1-c1ccccc1 [Compound 7948346] | 25.2% | 17.7% | 72.4% | 49.3% | 10.2% |  |  |  |  |  |  |  |  | 
11 | Cc1c(C#N)c2ccccc2n1CC(=O)NCc1ccc2c(c1)OCO2 [Compound 6874634] | 4.6% | 21.2% | 65.6% | 46% | 12.8% | 48% | 22.7% | 67.7% | 54.1% | 13.4% |  |  |  | 
12 | CN(C)c1ccc(C(O)(c2ccc(N(C)C)cc2)c2ccc(N(C)C)cc2)cc1 [Compound 5152606] | 31.8% | 108.40% | 82.15% | 121.65% | 70.2% |  |  |  |  |  |  |  |  | 
13 | O=C(Nc1ccc(S(=O)(=O)N2CCOCC2)cc1)Nc1ccc(F)c(Cl)c1 [Compound 7798500] | −6.3% | 26.3% | 69.6% | 41.5% | 11.2% | 64.8% | 30.4% | 62.2% | 49.2% | 24.6% |  |  |  | 
14 | O=C(Nc1ccc2c(c1)OCO2)c1cc(-c2cccnc2)nc2ccc(Cl)cc12 [Compound 7924029] | 22% | 26.3% | 60% | 50.4% | 11% | 55% | 45.6% | 71.2% | 77.9% | 18.6% |  |  |  | 
15 | O=c1[nH]c2ccc(S(=O)(=O)Nc3ccc(Cl)c(Cl)c3)cc2o1 [Compound 7914021, N-(3,4-dichlorophenyl)-2-oxo-2,3-dihydrobenzo[d]oxazole-6-sulfonamide] | 36% | 25.4% | 71.7% | 53.6% | 13.1% | 83.8% | 52.2% | 85.2% | 82% | 21.9% | 27.1% | 51.5% | toxic | 20-100%
16 | O=C(Nc1nc(-c2ccccc2)cs1)c1cc(-n2cnnc2)ccc1Cl [Compound 7931205] | −0.7% | 34.8% | 36.8% | 66.6% | 19.5% | 20% | 38.6% | 38.1% | 74.4% | 24.9% |  |  |  | 
17 | O=C(Nc1ccc(F)c(Cl)c1)Nc1nnc(C(F)(F)F)s1 [Compound 7940158] | −12.3% | 26.2% | 55.8% | 34% | 4% | 49.1% | 19% | 64.6% | 54.7% | 14.9% |  |  |  | 
18 | Cl.c1ccc(CNC2CCCc3c2[nH]c2ccc(-c4ccccc4)cc32)cc1 (centres unmarked) [Compound 5219666] | 43% | 54.6% | 94.6% | 90.6% | 30% | 75.7% | 65.2% | 96.8% | 87.5% | 44.4% |  |  |  | 
